Laboratory results reported in US20120141977A1, “HEPATITIS B VIRUS MUTATION STRAIN WITH RESISTANCE TO ADEFOVIR DIPIVOXIL AND THE USES THEREOF” (priority 2009, published 2012).

Legend:
HBV wild strain = test: Drug sensitivity test: HepG2 cells transiently transfected with wild-type HBV plasmid, intracellular replication intermediates by Southern blotting; type: cell-based; conditions: Hepatitis B virus, 168 h, HBV replication intermediates in cytoplasm, Southern blotting gray values, treated 7 days, read-out: half maximal inhibitory concentration (IC50) for the wild strain
Description: (§1) After recovery, Human hepatoma cell strain HepG2 grew as the adherent monolayer cells in the DMEM medium with 10% fetal bovine serum at 37° C. in 5% CO2. Every 3 to 5 days, cells were passaged one generation in a ratio of 1:3. 24 hours before transfection, cells were inoculated in an appropriate amount (about 2×10^5 per well in a 6-well plate). Preferably, cell density was 40 to 60% for transfection (also, 80 to 90% as well). 1 hour before transfection, the medium was replaced with fresh complete culture medium (2 ml per well), and incubated at 37° C. in 5% CO2. To each well, for example, saline for injection was added to 2 μg of DNA to make a total volume of 100 μl, followed by mixing gently and standing at room temperature. Saline for injection was added to 2 μl of VigoFect to make a total volume of 100 μl, followed by mixing gently and standing at room temperature for 5 minutes. The diluted VigoFect was added to the diluted DNA solution dropwise, mixed gently, followed by keeping the resultant working solution for transfection stand at room temperature for 15 minutes. The transfection working solution was mixed gently and 2 ml of medium was added thereto dropwise, mixed gently and then incubated at 37° C. in 5% CO2. 2 days after transfection, the medium was replaced and ADV were added thereto with the final concentrations of 0, 0.01, 0.1, 1, 5, 10 and 20 μM. […]

[1] = test system: rtL180M +M204V and rtN236T; conditions: cited from earlier work
[2] = test system: HBV rtE218G mutant strain; test: Drug sensitivity test: HepG2 cells transiently transfected with rtE218G mutagenic HBV plasmid, intracellular replication intermediates by Southern blotting; type: cell-based, hepatitis B virus
Description: as §1

SMILES: Nc1ncnc2c1ncn2CCOCP(=O)(O)O [adefovir]
- IC50 (HBV wild strain): 1.7 µM
- decrease of sensitivity of combined three mutations compared with rtN236T single mutation [1]: 2 folds
- IC50 ([2]; Hepatitis B virus, 168 h, HepG2 cells, HBV replication intermediates in cytoplasm, Southern blotting gray values, treated 7 days, read-out: half maximal inhibitory concentration (IC50) for the rtE218G mutant strain): 9.3 µM
- IC50 of rtE218G mutant strain relative to that of the wild strain ([2]; ratio mutant IC50 / wild IC50): 5.5 times
